Consider 2 substances from patent US20260014278A1, “HYBRID PEPTIDE DENDRIMER SYSTEMS AND EXTRAHEPATIC DELIVERY” (NUNTIUS THERAPEUTICS LIMITED, priority 2022, published 2026).

One data set relates to lung and spleen. The experiment in a line: Luciferase mRNA expression in mouse tissues after intravenous administration (bioluminescence). In kind it is in vivo, Balb/c mice. As to conditions: 6 hours, DOTMA/DOPE w/w=23:1 to mRNA, dendrimers NP=0.6:1, FIG. 11. As to the method:
All animal procedures were conducted following the Animal Research Reporting of In Vivo Experiments and approved by the UK Home Office for the conduct of regulated procedures under license. For the data underlying FIG. 11, Balb/c mice aged 4 weeks were purchased from Jackon's Laboratory and left to acclimate in the new housing environment for 1-week upon their arrival. All mice were weighed and warmed for 15 min at 37 C in a heating chamber. The formulations were delivered intravenously (5 mL/kg) via the tail vein using 30 G insulin syringes (BD biosciences).
All mice were imaged 6 hours post injection. BLI was performed using an IVIS Lumina II (Perkin Elmer) imaging system. Mice were administered D-luciferin (GoldBio) at a dose of 10 uL/g. Mice were anaesthetised in a chamber with 2.5% isoflurane and then placed on a heated imaging platform while being maintained on 2.5% isoflurane. For the data underlying FIG. 11, mice were imaged 10 min post administration of D-luciferin with an exposure time set at 45 sec to ensure the signal acquired was within an effective detection range (binning medium). Bioluminescence signal was quantified by measuring photon flux (photons/s) using the Living Image software (Perkin Elmer). […] The organs were placed in the centre of imaging platform (Lumina II system) and signal was measured using the acquisition settings detailed above. […]

The nature of data set [1]: Dynamic light scattering: hydrodynamic size and polydispersity index (PDI) of nanoparticles. It is filed as physicochemical. Particulars: peptide dendrimer, lipid and mRNA complexes; N:P 8:1, DOTMA/DOPE w/w 10:1 to mRNA. As to the method:
(§1) The hydrodynamic size was measured using the dynamic light scattering (DLS) technique. DLS is a very sensitive, non-invasive method to measure size and size distribution of nanoparticles in a liquid. […] Analysing these intensity fluctuations allows us to calculate the velocity of the Brownian motion. The size of the nanoparticles can be determined by using the Stokes-Einstein relationship. With the latest technology, it can measure nanoparticles smaller than 1 nm.
PDI is used to estimate the average uniformity of a particle solution, The method of cumulants is a standard technique for analysing DLS data on sample polydispersity. PDI is a number calculated from a 2 parameter fit to the correlation data (the cumulants analysis). The cumulants analysis is used to evaluate the autocorrelation function generated by a DLS experiment. The calculation is defined in ISO 13321 and ISO 22412. PDI values greater than 0.7 indicate that the sample has a very broad size distribution and is not suitable for the DLS technique. The calculations for these parameters are defined in the ISO standard document 13321:1996 E and ISO 22412:2008.
as §1, with “Size, zeta potential and polydispersity index (PDI) measurement: The hydrodynamic” for “The hydrodynamic”, “scattering (DLS) technique using the Zetasizer Advance Series—Pro (Malvern Panalytical Ltd, Malvern, UK) according to the manufacturer's instructions. DLS is” for “scattering (DLS) technique. DLS is”
The data obtained with DLS measurements can also be used to calculate the PDI of particle in solution. PDI is used to estimate the average uniformity of a particle solution. The method of cumulants is a standard technique for analysing DLS data on sample polydispersity. PDI is a number calculated from a 2 parameter fit to the correlation data (the cumulants analysis). The cumulants analysis is used to evaluate the autocorrelation function generated by a DLS experiment. The calculation is defined in ISO 13321 and ISO 22412. PDI values greater than 0.7 indicate that the sample has a very broad size distribution and is not suitable for the DLS technique. The calculations for these parameters are defined in the ISO standard document 13321:1996 E and ISO 22412:2008.
To measure the size and PDI, the samples were diluted 16× in 25 mM HEPES buffer (5 μl sample+75 μl buffer). Parameters: reference material: polystyrene latex, dispersant: water, 25° C. The PDI measurements were measured in nanoparticles comprising a dendrimer:nucleic acid NP ratio of 8:1.

For the next data set, the system named is mouse macrophages. Put plainly: eGFP mRNA transfection of mouse macrophages with or without mannose-dendrimer coat. In kind it is cell-based. As to conditions: GSCG1,2-RHL nanoparticle NP=8:1, DOTMA/DOPE:mRNA w/w 10:1, coat 1:1 (1 eq) coating:mRNA; FIG. 6. The method, then: J774.2 cells were subcultured in DMEM supplemented with 2 mM glutamax and 10% heat-inactivated FBS (complete media). Twice a week (at about 70-80% confluency; every 3-4 days), cells were scrapped and collected into Falcon tubes, and pelleted at 400 g for 5 minutes. The cells were resuspended in complete media, counted and seeded into 10 cm dishes at a density of 1.7-2.5E+4 cells/cm^2. For M2 polarisation, the cells were treated with complete media supplemented with 20 ng/ml recombinant murine IL-4 and 20 ng/ml recombinant murine IL-13 (activation media) over a 48 hr period. After 24 hrs in IL-4 and IL-13 containing medium, the cells scrapped and collected as described above. The cells were seeded into 24-well plates at a density of 1.2E+5 cells/well in 0.5mls/well complete media containing 20 ng/ml IL-4 and IL-13.
The media overlaying the polarised J774.2 cells was aspirated and exchanged with 480 ul/well activation media. 120 ul/well of each test condition (total volume was 600 ul/well) was added (test conditions were prepared in 25 mM HEPES solution). Control conditions were prepared consisting of neat 25 mM HEPES and an mRNA control. Between addition of each test condition the plate was shaken back and forth to ensure mixing. The plate was placed into the incubator overnight.
Staining and fixation for both human and mouse-derived macrophages was carried out as follows. After 24 hrs the media overlaying each test condition was transferred to corresponding 1.5 ml Eppendorf tubes (in order to conserve cells that may have died during transfection). Cells were then washed with 300 ul/well PBS which was transferred to the corresponding tubes. 500 ul/well 5 mM EDTA was added to each well and the plate(s) transferred to the 37° C. incubator for 5-10 minutes until the cells started to detach. Cells were then transferred from the plate to the corresponding 1.5 ml tubes. Cells were pelleted down at 300 g for 5 minutes and resuspended in 100 ul/sample fixable Live/Dead Aqua stain. ArC beads were stained with 3 ul neat Live/Dead Aqua for compensation. These cells were stained on ice for 30 minutes. Following this, the tubes were spun down at 300 g for 5 minutes. The supernatant was discarded, and the cells were resuspended in 500 ul/sample PBS. Negative ArC beads were added to the compensation control. GFP compensation beads were dispensed into separate tube as the GFP compensation control. The samples were spun down at 300 g for 5 minutes. Samples were then resuspended in 100 ul/sample of Reagent A from the Invitrogen Fix/Perm kit and left at room temperature for 15 minutes. The samples were spun down at 400 g for 5 minutes and the supernatant was disposed. The samples were once again washed with PBS and spun down at 300 g for 5 minutes. The cells were finally resuspended in 400 ul/sample FACS buffer (PBS+2 mM EDTA+0.5% w/v BSA) for flow analysis. Samples were stored in the fridge prior to flow analysis and run within 24 hrs of fixation.
12 μl of a nanoparticle formulation was aliquoted into a sterile 0.5 ml polypropylene tube. 4 μl of a 0.3 mg/ml, 0.6 mg/ml or 1.8 mg/ml solution of (Ac-EEEE)2[…][(S-S)-α-D-Thiomannose] (for a mRNA:coating mass ratio of 1:0.5, 1:1 or 1:3, respectively) was mixed by rapidly pipetting up and down 10-15 times, and allowed to incubate for 5 minutes.
Macrophages, and in particular M2-phenotype macrophages, are known to have enriched surface expression of the receptor CD206, the ligand for which is mannose.

Another data set deals with myeloid cells in tumour. Put plainly: In vivo uptake of Alexafluor488 tagged mRNA by cells in tumour of MC38 bearing mice. More on the design: species or system C57Bl/6 mice. Particulars: GSCG1,2-RL, 3-LR N:P=0.16:1, DOTMA:DOPE 10:1, coat 3 eq; 2.25 mg/kg IV, 4 hours; FIG. 39. From the text: Compensation was adjusted using the Attune compensation beads.
In the next data set the test system is lung cells. As to conditions: GSCG1,2-RL, 3-LR N:P=0.16:1, DOTMA:DOPE 10:1, coat 3 eq; 2.25 mg/kg IV, 4 hours; FIG. 13.

Method for lung cells: Six week old, female C57Bl/6 mice were supplied from Envigo UK. The mice were acclimatized in the animal facility for at least 7 days prior to use. […] The mice were randomised into 4 groups of n=3 when the tumours reached 0.15 cm3 (calliper measurements) and were dosed IV at 2.25 mg/kg or 3 mg/kg.
Four hours post dosing of the formulations, the animals were culled, and tissues were harvested. Terminal blood was collected in EDTA tubes and treated with Red Blood Cell Lysing Buffer HYBRI-MAX (Merck) prior to antibody staining. Spleens were dissociated by pushing through a 70 uM cell strainer using a syringe plunge. The cell suspension was then treated with Red Blood Cell Lysing Buffer HYBRI-MAX (Merck) prior to antibody staining. Lung and tumour samples were cut into small pieces and were enzymatically digested using the Lung and Tumor Dissociation Kit (mouse) and the gentleMACS™ Octo Dissociator with Heaters (Miltenyi) following the manufacturer's instructions.
The final cell suspensions were blocked with mouse Fc block prior to antibody staining. Cells were incubated with the antibody master mix at 4 C for 20 min and then they were fixed using 4% PFA for 30 min RT. They were analysed using the Attune NxT flow cytometer (Thermo Fisher) within 24 hours of fixing and data was analysed using the FlowJo_v10.8.1 software. Compensation was adjusted using the Attune compensation beads.

Consider (LRLR)2KGSC-NH2 [GSCG1-LRLR], for which the “delivery of luciferase mRNA cargo to lung and spleen (bioluminescence)” value in the data set with lung and spleen was “further improved”. In data set [1], the “Polydispersity Index (PDI)” value came to 0.581.
For the substance “(Ac-EEEE)2KGSGGSGGSC[(S-S)-α-D-Thiomannose] [Mannose-G1-EEEE]”, the “increase of transfection efficiency compared to a non-coated nanoparticle” value with mouse macrophages is around 10%. In the data set on myeloid cells in tumour, the “uptake by CD206+ M2 macrophage cells in tumour versus non-coated nanocarrier and LPX-mRNA” value is listed as “more effectively”. Also, in the data set with lung cells, the “uptake by CD206+ cells in the lung versus non-coated nanocarrier and LPX-mRNA” value was “more effectively”; the “uptake in the lung cells versus non-coated nanocarrier and LPX-mRNA” value is given as “higher uptake in the lung cells”.
